Test results: ChEMBL document CHEMBL4229569, “Structure-Based Design of 1-Heteroaryl-1,3-propanediamine Derivatives as a Novel Series of CC-Chemokine Receptor 5 Antagonists” (J Med Chem, 2018); call rule not given here

Experiments:
[1] = Drug level in human liver cells assessed as CYP450-mediated compound formation treated with 4,4-Difluoro-N-(3-((1R,3S,5S)-3-(3-isopropyl-5-methyl-4H-1,2,4-triazol-4-yl)-8-azabicyclo[3.2.1]octan-8-yl)-1-(thiophen-3-yl)-propyl)cyclohexane-1-carboxamide by UPLC/Q-TOF mass spectrometric analysis; assay type: ADME, cell-based; conditions: recombinant enzyme
[2] = Drug level in dog liver cells assessed as CYP450-mediated compound formation treated with 4,4-Difluoro-N-(3-((1R,3S,5S)-3-(3-isopropyl-5-methyl-4H-1,2,4-triazol-4-yl)-8-azabicyclo[3.2.1]octan-8-yl)-1-(thiophen-3-yl)-propyl)cyclohexane-1-carboxamide by UPLC/Q-TOF mass spectrometric analysis; assay type: ADME, cell-based, Canis lupus familiaris; conditions: recombinant enzyme
[3] = Drug level in rat liver cells assessed as CYP450-mediated compound formation treated with 4,4-Difluoro-N-(3-((1R,3S,5S)-3-(3-isopropyl-5-methyl-4H-1,2,4-triazol-4-yl)-8-azabicyclo[3.2.1]octan-8-yl)-1-(thiophen-3-yl)-propyl)cyclohexane-1-carboxamide by UPLC/Q-TOF mass spectrometric analysis; assay type: ADME, cell-based; conditions: recombinant enzyme
[4] = Drug level in mouse liver cells assessed as CYP450-mediated compound formation treated with 4,4-Difluoro-N-(3-((1R,3S,5S)-3-(3-isopropyl-5-methyl-4H-1,2,4-triazol-4-yl)-8-azabicyclo[3.2.1]octan-8-yl)-1-(thiophen-3-yl)-propyl)cyclohexane-1-carboxamide by UPLC/Q-TOF mass spectrometric analysis; assay type: ADME, cell-based; conditions: recombinant enzyme
[5] = Drug level in rat liver cells assessed as CYP450-mediated compound formation treated with maraviroc by Q-TOF mass spectrometric analysis; assay type: ADME, cell-based; conditions: recombinant enzyme
[6] = Drug level in dog liver cells assessed as CYP450-mediated compound formation treated with maraviroc by Q-TOF mass spectrometric analysis; assay type: ADME, cell-based, Canis lupus familiaris; conditions: recombinant enzyme
[7] = Drug level in human liver cells assessed as CYP450-mediated compound formation treated with maraviroc by Q-TOF mass spectrometric analysis; assay type: ADME, cell-based; conditions: recombinant enzyme
[8] = target: C-C chemokine receptor type 5 (Homo sapiens, UniProt P51681); assay: Antagonist activity at CCR5 (unknown origin) expressed in HEK293 cells co-expressing Galpha16 assessed as inhibition of RANTES-induced calcium flux preincubated for 10 mins followed by RANTES addition by fluo-4AM-based fluorescence assay; assay type: functional, cell-based
Sequence of C-C chemokine receptor type 5 (P51681 whole entry): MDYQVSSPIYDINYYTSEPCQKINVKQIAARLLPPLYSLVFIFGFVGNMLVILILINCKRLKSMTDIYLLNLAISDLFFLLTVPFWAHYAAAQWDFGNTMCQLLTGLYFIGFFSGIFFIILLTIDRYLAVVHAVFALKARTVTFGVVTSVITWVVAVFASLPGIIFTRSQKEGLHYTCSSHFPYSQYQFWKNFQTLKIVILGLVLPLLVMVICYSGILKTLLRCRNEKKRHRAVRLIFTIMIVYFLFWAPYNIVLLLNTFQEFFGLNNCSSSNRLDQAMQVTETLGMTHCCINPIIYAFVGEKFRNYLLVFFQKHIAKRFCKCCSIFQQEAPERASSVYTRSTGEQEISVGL

[9] = Cytotoxicity against human TZM-bl cells after 48 hrs by MTT assay; assay type: cell-based
[10] = Cmax in Sprague-Dawley rat at 20 mg/kg, po by LC-MS/MS analysis; assay type: ADME, organism-based; design: dose 20 mg/kg, route oral; conditions: in vivo
[11] = Tmax in Sprague-Dawley rat at 20 mg/kg, po by LC-MS/MS analysis; assay type: ADME, organism-based; conditions: in vivo
[12] = Half life in Sprague-Dawley rat at 20 mg/kg, po by LC-MS/MS analysis; assay type: ADME, organism-based; conditions: in vivo
[13] = AUC (0 to infinity) in Sprague-Dawley rat at 20 mg/kg, po by LC-MS/MS analysis; assay type: ADME, organism-based; design: dose 20 mg/kg, route oral, time infinity; conditions: in vivo
[14] = MRT in Sprague-Dawley rat at 20 mg/kg, po by LC-MS/MS analysis; assay type: ADME, organism-based; conditions: in vivo
[15] = Oral bioavailability in Sprague-Dawley rat at 20 mg/kg by LC-MS/MS analysis; assay type: ADME, organism-based; conditions: in vivo
[16] = Cmax in Sprague-Dawley rat at 10 mg/kg, iv by LC-MS/MS analysis; assay type: ADME, organism-based; design: dose 10 mg/kg, route intravenous; conditions: in vivo
[17] = Tmax in Sprague-Dawley rat at 10 mg/kg, iv by LC-MS/MS analysis; assay type: ADME, organism-based; conditions: in vivo
[18] = Half life in Sprague-Dawley rat at 10 mg/kg, iv by LC-MS/MS analysis; assay type: ADME, organism-based; conditions: in vivo
[19] = AUC (0 to infinity) in Sprague-Dawley rat at 10 mg/kg, iv by LC-MS/MS analysis; assay type: ADME, organism-based; design: dose 10 mg/kg, time infinity, route intravenous; conditions: in vivo
[20] = MRT in Sprague-Dawley rat at 10 mg/kg, iv by LC-MS/MS analysis; assay type: ADME, organism-based; conditions: in vivo
[21] = Clearance in Sprague-Dawley rat at 10 mg/kg, iv by LC-MS/MS analysis; assay type: ADME, organism-based; conditions: in vivo
[22] = Cmax in dog at 15 mg/kg, po by LC-MS/MS analysis; assay type: ADME, organism-based, Canis lupus familiaris; design: dose 15 mg/kg, route oral; conditions: in vivo
[23] = Tmax in dog at 15 mg/kg, po by LC-MS/MS analysis; assay type: ADME, organism-based, Canis lupus familiaris; conditions: in vivo
[24] = Half life in dog at 15 mg/kg, po by LC-MS/MS analysis; assay type: ADME, organism-based, Canis lupus familiaris; conditions: in vivo
[25] = AUC (0 to infinity) in dog at 15 mg/kg, po by LC-MS/MS analysis; assay type: ADME, organism-based, Canis lupus familiaris; design: dose 15 mg/kg, time infinity, route oral; conditions: in vivo
[26] = MRT in dog at 15 mg/kg, po by LC-MS/MS analysis; assay type: ADME, organism-based, Canis lupus familiaris; conditions: in vivo
[27] = Oral bioavailability in dog at 15 mg/kg by LC-MS/MS analysis; assay type: ADME, organism-based, Canis lupus familiaris; conditions: in vivo
[28] = Half life in dog at 3 mg/kg, iv by LC-MS/MS analysis; assay type: ADME, organism-based, Canis lupus familiaris; conditions: in vivo
[29] = AUC (0 to infinity) in dog at 3 mg/kg, iv by LC-MS/MS analysis; assay type: ADME, organism-based, Canis lupus familiaris; design: dose 3 mg/kg, route intravenous, time infinity; conditions: in vivo
[30] = MRT in dog at 3 mg/kg, iv by LC-MS/MS analysis; assay type: ADME, organism-based, Canis lupus familiaris; conditions: in vivo
[31] = Clearance in dog at 3 mg/kg, iv by LC-MS/MS analysis; assay type: ADME, organism-based, Canis lupus familiaris; conditions: in vivo
[32] = system: Hepatocyte; assay: Metabolic stability in human hepatocytes assessed as compound remaining by UPLC/Q-TOF mass spectrometric analysis; assay type: ADME, cell-based
[33] = system: Hepatocyte; assay: Metabolic stability in monkey hepatocytes assessed as compound remaining by UPLC/Q-TOF mass spectrometric analysis; assay type: ADME, cell-based, Macaca mulatta; conditions: rhesus monkey
[34] = system: Hepatocyte; assay: Metabolic stability in dog hepatocytes assessed as compound remaining by UPLC/Q-TOF mass spectrometric analysis; assay type: ADME, cell-based, Canis lupus familiaris
[35] = system: Hepatocyte; assay: Metabolic stability in rat hepatocytes assessed as compound remaining by UPLC/Q-TOF mass spectrometric analysis; assay type: ADME, cell-based
[36] = target: Voltage-gated inwardly rectifying potassium channel KCNH2 (Homo sapiens, UniProt Q12809); assay: Inhibition of human ERG expressed in CHO cells at holding potential of -80 mV after 60 secs by patch clamp assay; assay type: cell-based
Sequence of Voltage-gated inwardly rectifying potassium channel KCNH2 (Q12809 whole entry): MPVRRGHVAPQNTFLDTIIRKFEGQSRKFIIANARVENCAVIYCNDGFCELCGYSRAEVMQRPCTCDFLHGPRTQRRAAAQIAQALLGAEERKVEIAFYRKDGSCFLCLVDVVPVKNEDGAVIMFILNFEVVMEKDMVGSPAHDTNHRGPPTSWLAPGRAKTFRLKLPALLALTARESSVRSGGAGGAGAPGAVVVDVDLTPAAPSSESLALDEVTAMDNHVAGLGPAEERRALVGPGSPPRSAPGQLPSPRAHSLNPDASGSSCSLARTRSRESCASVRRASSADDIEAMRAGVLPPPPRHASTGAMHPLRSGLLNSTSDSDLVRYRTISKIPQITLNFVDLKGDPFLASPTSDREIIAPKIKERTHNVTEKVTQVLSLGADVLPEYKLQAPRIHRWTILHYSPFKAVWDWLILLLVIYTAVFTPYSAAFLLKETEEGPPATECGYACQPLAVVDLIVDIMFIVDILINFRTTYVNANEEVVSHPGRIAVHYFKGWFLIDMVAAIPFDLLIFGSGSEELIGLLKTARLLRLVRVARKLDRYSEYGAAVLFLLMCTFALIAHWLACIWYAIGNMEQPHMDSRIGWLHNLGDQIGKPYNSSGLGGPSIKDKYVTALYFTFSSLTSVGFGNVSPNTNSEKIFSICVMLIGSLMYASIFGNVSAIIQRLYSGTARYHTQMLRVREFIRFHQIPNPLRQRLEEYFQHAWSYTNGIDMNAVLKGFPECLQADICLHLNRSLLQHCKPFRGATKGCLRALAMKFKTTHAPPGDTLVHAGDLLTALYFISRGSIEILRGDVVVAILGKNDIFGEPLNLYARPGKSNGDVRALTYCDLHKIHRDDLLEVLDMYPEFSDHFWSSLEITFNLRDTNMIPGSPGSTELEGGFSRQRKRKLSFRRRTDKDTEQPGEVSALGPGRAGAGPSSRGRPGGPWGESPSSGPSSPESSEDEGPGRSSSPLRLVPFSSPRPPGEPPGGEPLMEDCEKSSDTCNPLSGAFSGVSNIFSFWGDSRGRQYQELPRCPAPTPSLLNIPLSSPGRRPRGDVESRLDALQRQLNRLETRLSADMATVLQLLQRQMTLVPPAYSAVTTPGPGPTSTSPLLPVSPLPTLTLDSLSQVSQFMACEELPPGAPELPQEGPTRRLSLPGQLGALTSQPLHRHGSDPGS

[37] = target: T1, Cytochrome P450 1A2 (Homo sapiens, UniProt P05177); assay: Inhibition of CYP1A2 (unknown origin); assay type: ADME
T1 sequence (P05177 whole entry): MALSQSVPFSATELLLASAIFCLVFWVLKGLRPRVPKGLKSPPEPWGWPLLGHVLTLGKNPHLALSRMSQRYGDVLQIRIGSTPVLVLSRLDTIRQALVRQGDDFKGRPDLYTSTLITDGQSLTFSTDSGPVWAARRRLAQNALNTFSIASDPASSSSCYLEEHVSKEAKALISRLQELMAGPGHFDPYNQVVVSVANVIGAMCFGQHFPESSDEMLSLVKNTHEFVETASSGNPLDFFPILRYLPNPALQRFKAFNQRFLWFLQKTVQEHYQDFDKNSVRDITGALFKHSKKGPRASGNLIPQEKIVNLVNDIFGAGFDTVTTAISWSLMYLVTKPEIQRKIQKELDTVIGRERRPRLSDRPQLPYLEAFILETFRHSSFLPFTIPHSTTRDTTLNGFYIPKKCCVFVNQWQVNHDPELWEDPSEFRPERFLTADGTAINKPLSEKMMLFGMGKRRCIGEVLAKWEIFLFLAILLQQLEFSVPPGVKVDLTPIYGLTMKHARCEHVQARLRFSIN

[38] = target: Cytochrome P450 2C9 (Homo sapiens, UniProt P11712); assay: Inhibition of CYP2C9 (unknown origin); assay type: ADME
Sequence of Cytochrome P450 2C9 (P11712 whole entry): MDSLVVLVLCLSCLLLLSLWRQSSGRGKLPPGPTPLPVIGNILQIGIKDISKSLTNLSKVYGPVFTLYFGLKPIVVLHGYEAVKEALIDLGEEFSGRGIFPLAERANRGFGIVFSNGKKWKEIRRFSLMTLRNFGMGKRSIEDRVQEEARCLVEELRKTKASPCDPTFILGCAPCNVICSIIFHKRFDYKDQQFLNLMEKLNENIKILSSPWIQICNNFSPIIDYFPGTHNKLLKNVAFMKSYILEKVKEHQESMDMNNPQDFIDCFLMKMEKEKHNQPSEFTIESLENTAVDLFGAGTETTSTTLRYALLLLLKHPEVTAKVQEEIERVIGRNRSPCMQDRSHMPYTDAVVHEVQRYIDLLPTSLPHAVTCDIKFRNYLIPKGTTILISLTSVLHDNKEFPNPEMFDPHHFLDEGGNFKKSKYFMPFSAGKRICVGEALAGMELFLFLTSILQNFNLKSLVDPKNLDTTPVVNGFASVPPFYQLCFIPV

[39] = target: Cytochrome P450 2C19 (Homo sapiens, UniProt P33261); assay: Inhibition of CYP2C19 (unknown origin); assay type: ADME
Sequence of Cytochrome P450 2C19 (P33261 whole entry): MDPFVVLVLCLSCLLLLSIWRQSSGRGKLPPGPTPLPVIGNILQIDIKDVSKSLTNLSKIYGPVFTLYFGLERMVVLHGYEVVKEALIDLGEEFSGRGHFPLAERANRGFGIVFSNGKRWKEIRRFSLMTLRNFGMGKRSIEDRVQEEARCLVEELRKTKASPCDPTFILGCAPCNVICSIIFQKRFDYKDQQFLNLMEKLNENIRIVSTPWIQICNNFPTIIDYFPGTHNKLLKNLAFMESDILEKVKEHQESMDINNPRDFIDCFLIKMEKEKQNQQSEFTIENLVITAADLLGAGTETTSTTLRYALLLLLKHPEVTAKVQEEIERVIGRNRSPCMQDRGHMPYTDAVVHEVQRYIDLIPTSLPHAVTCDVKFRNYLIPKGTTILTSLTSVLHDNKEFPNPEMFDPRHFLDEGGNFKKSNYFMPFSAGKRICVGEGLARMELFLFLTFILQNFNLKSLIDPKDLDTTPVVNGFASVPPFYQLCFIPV

[40] = target: Cytochrome P450 2D6 (Homo sapiens, UniProt P10635); assay: Inhibition of CYP2D6 (unknown origin); assay type: ADME
Sequence of Cytochrome P450 2D6 (P10635 whole entry): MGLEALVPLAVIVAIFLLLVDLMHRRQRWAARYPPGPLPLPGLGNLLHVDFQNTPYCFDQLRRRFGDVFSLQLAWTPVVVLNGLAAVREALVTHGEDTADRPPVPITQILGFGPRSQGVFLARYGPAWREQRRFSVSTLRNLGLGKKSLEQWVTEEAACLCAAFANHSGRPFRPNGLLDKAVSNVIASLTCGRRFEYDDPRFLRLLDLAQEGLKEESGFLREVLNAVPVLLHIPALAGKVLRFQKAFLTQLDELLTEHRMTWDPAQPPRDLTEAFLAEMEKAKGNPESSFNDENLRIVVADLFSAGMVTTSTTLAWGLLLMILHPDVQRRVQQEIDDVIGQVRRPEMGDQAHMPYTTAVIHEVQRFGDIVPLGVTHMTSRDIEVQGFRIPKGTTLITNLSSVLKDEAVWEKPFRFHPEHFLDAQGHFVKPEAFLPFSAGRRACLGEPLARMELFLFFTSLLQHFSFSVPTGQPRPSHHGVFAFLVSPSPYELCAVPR

[41] = target: T2, Cytochrome P450 3A4 (Homo sapiens, UniProt P08684); assay: Inhibition of CYP3A4 (unknown origin) using midazolam as substrate; assay type: ADME
T2 sequence (P08684 whole entry): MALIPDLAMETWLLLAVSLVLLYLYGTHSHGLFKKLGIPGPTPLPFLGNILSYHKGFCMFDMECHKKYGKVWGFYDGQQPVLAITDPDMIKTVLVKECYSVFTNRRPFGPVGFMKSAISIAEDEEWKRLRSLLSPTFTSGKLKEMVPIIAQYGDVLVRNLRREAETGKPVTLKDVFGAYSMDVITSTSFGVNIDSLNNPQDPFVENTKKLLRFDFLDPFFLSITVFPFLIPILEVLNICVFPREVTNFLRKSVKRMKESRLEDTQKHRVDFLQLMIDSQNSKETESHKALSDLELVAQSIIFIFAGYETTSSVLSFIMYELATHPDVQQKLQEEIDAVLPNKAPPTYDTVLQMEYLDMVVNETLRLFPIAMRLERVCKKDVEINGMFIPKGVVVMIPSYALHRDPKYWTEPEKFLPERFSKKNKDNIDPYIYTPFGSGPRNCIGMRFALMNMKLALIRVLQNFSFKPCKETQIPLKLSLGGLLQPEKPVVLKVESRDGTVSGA

[42] = target: T2, Cytochrome P450 3A4; assay: Inhibition of CYP3A4 (unknown origin) using testosterone as substrate; assay type: ADME
[43] = system: Rattus norvegicus; assay: Toxicity in rat assessed as mortality at 2000 mg/kg, po administered as single dose and measured during 14 days observation period; assay type: organism-based; conditions: in vivo, 336 h
[44] = system: Canis familiaris; assay: Toxicity in po dosed dog assessed as drug tolerability administered as single dose; assay type: organism-based, Canis lupus familiaris; conditions: in vivo
[45] = in vitro; conditions: human, TZM-bl cells
Description: Therapeutic index, ratio of CC50 for human TZM-bl cells to EC50 for CCR5-dependent HIV1 SF162 infected in human TZM-bl cells

[46] = in vitro; conditions: human, PBMC
Description: Therapeutic index, ratio of CC50 for human PBMC to IC50 for CCR5-dependent HIV1 SF162 infected in human PBMC cells

[47] = in vitro; conditions: human, HOS cells
Description: Therapeutic index, ratio of CC50 for human HOS cells to IC50 for CCR5-dependent HIV1 SF162 infected in human HOS cells

[48] = in vitro; conditions: human, PBMC; remark: listed apart in the source
Description: Therapeutic index, ratio of CC50 for human PBMC to IC50 for CCR5-dependent HIV1 KM018 infected in human PBMC

[49] = in vitro; conditions: human, PBMC; remark: listed apart in the source
Description: Therapeutic index, ratio of CC50 for human PBMC to IC50 for CCR5-dependent HIV1 Ba-L infected in human PBMC

[50] = in vitro; conditions: human, HOS cells; remark: listed apart in the source
Description: Therapeutic index, ratio of CC50 for human HOS cells to IC50 for CCR5-dependent HIV1 Ba-L infected in human HOS cells

[51] = in vitro; conditions: human, PM1 cells
Description: Therapeutic index, ratio of CC50 for human PM1 cells to IC50 for CCR5-dependent HIV1 Ba-L infected in human PM1 cells

[52] = system: Human immunodeficiency virus 1; assay: microbe, parasite or virus in culture; conditions: Human immunodeficiency virus 1, SF162, TZM-bl, 48 h
Description: Antiviral activity against CCR5-dependent HIV1 SF162 infected in human TZM-bl cells assessed as reduction in virus infection measured after 48 hrs post infection by luciferase reporter gene assay

[53] = system: Human immunodeficiency virus 1; assay: microbe, parasite or virus in culture; conditions: Human immunodeficiency virus 1, SF162, PBMC, 168 h
Description: Antiviral activity against CCR5-dependent HIV1 SF162 infected in human PBMC assessed as reduction in virus infection measured after 7 days by luciferase reporter gene assay

[54] = system: Human immunodeficiency virus 1; assay: microbe, parasite or virus in culture; conditions: Human immunodeficiency virus 1, SF162, HOS, 120 h
Description: Antiviral activity against CCR5-dependent HIV1 SF162 infected in human HOS cells assessed as reduction in virus infection measured after 5 days by luciferase reporter gene assay

[55] = system: Human immunodeficiency virus 1; assay: microbe, parasite or virus in culture; conditions: Human immunodeficiency virus 1, KM018, PBMC, 168 h
Description: Antiviral activity against CCR5-dependent HIV1 KM018 infected in human PBMC assessed as reduction in virus infection measured after 7 days by luciferase reporter gene assay

[56] = system: Human immunodeficiency virus 1; assay: microbe, parasite or virus in culture; conditions: Human immunodeficiency virus 1, Ba-L, PBMC, 168 h
Description: Antiviral activity against CCR5-dependent HIV1 Ba-L infected in human PBMC assessed as reduction in virus infection measured 7 days by luciferase reporter gene assay

[57] = system: Human immunodeficiency virus 1; assay: microbe, parasite or virus in culture; conditions: Human immunodeficiency virus 1, Ba-L, HOS, 120 h
Description: Antiviral activity against CCR5-dependent HIV1 Ba-L infected in human HOS cells assessed as reduction in virus infection measured after 5 days by luciferase reporter gene assay

[58] = system: Human immunodeficiency virus 1; assay: microbe, parasite or virus in culture; conditions: Human immunodeficiency virus 1, Ba-L, PM1, 120 h
Description: Antiviral activity against CCR5-dependent HIV1 Ba-L infected in human PM1 cells assessed as reduction in virus infection measured after 5 days by luciferase reporter gene assay

Cc1nnc(C(C)C)n1[C@@H]1C[C@H]2CC[C@@H](C1)N2CC[C@H](NC(=O)C1CCC(F)CC1)c1ccsc1 (stereo partly drawn)
Drug uptake [1]: Active
Drug uptake [2]: Active
Drug uptake [3]: Active
Drug uptake [4]: Active
Drug uptake [5]: Active
Drug uptake [6]: Active
Drug uptake [7]: Active

Cc1nnc(C(C)C)n1[C@@H]1C[C@H]2CC[C@@H](C1)N2CC[C@H](NC(=O)C1CCC(F)(F)CC1)c1ccsc1
IC50 [8]: 3 nM
CC50 at 48 h [9]: > 200000 nM
Cmax [10]: 306 ng/mL
Tmax [11]: 2 h
half-life [12]: 1.6 h
AUC(0-inf) [13]: 1260 ng·h/mL
MRT [14]: 2.6 h
bioavailability [15]: 14.5%
Cmax [16]: 3780 ng/mL
Tmax [17]: 0.25 h
half-life [18]: 1.02 h
AUC(0-inf) [19]: 4160 ng·h/mL
MRT [20]: 0.8 h
clearance [21]: 16.7 mL/min/kg
Cmax [22]: 4610 ng/mL
Tmax [23]: 0.8 h
half-life [24]: 3.9 h
AUC(0-inf) [25]: 5520 ng·h/mL
MRT [26]: 2.1 h
bioavailability [27]: 10%
half-life [28]: 1.7 h
AUC(0-inf) [29]: 10900 ng·h/mL
MRT [30]: 1.6 h
clearance [31]: 5 mL/min/kg
Stability [32]: > 99%
Stability [33]: > 98%
Stability [34]: > 97%
Stability [35]: > 97%
IC50 [36]: > 40000 nM
IC50 [37]: > 25000 nM
IC50 [38]: > 25000 nM
IC50 [39]: > 25000 nM
IC50 [40]: > 25000 nM
IC50 [41]: > 25000 nM
IC50 [42]: > 25000 nM
Activity [43]: Non-Toxic
Activity [44]: Non-Toxic
selectivity ratio [45]: > 130000
selectivity ratio [46]: 160000
selectivity ratio [47]: 69000
selectivity ratio [48]: 290000
selectivity ratio [49]: 220000
selectivity ratio [50]: 280000
selectivity ratio [51]: 260000
IC50 [52]: 1.5 nM
IC50 [53]: 4.3 nM
IC50 [54]: 4.9 nM
IC50 [55]: 2.3 nM
IC50 [56]: 3 nM
IC50 [57]: 1.2 nM
IC50 [58]: 2.8 nM
